Measured values published in US20240299405A1, “APPLICATION OF ATP POTASSIUM CHANNEL MODIFIER IN PREPARATION OF ANTI-DIABETIC NEPHROPATHY DRUG” (HANGZHOU QIAN BIOTECHNOLOGY LTD, priority 2020, published 2024).

Tests used:
[1] = test system: STZ diabetic rat models (diabetic nephropathy); experiment: Urine microalbumin (mALB) by ELISA in STZ plus high-fat diet diabetic nephropathy rat model; assay type: in vivo, SD rats; conditions: for mALB, urine microalbumin value of each KATP agonist: week 30, mean ± SE; for effect on reducing the amount of microalbumin in diabetic nephropathy urine compared with the negative control group: week 30, p<0.05; for mALB, 20 Week: week 20, mean ± SE; for mALB, 24 Week: week 24, mean ± SE; for mALB, 26 Week: week 26, mean ± SE; for mALB, 32 Week: week 32, mean ± SE; for mALB, 35 Week: week 35, mean ± SE
Excerpt: STZ substantially and excessively damages islet-β cells through chemical toxicity (Saini K, Thompson C, Winterford C M, Walker N I, Cameron D P. Streptozotocin at low doses induces apoptosis and at high doses causes necrosis in a murine pancreatic b cell line, INS1[J]. International Union of Biochemistry and Molecular Biology Life. 1996, 39(6): 1229-1236). The pathophysiological characteristics of STZ modeled rats are relatively close to that of humans. Their blood can be collected repeatedly to monitor index changes and enough kidney tissues can be obtained for subsequent tissue section analysis. Therefore, STZ diabetic rat models are used. In addition, due to the high toxicity of STZ, multiple injections at low doses can establish better models. Keep feeding a high-fat diet daily after modeling until the end of the experiment. A high-fat diet can cause diabetic nephropathy in STZ rats.
Urine microalbumin (mALB) is an early diagnostic index of kidney injury, and mALB was used as an indicator to test whether rats entered diabetic nephropathy, and rat weight and blood glucose levels were used to observe whether the model was successful.
mALB is one of the most important monitoring indicators of nephropathy. […] Since the measurement results of mALB in humans and mice are different. The difference between the dosing group (group C) and the negative control group (group B) is used to judge whether the test results of this experiment are valid. The normal mALB value in this experiment was only used as a reference value, which is using the data of group A (blank control group).
At the beginning of the experiment, urine and blood of all rats were collected for the detection of the required indicators, and the initial indicators were used as a timely reference for the disease progression of the rats. After the start of the experiment, all rats were sampled with the Elisa kit every other month to detect mALB and other data.
Rat urine collection: urine is collected by metabolic cage, urine is collected after 24 h, the total amount of urine is recorded, and the urine output at 24 h is calculated. Take 1 ml of urine, centrifuge and take the supernatant and store at −80° C. for testing.
A 24 h urine sample was collected from rats for testing, and the collected sample was centrifuged at 15 min, centrifuged at 4° C. at 1000 ref for 20 min, and the mALB value was detected by supernatant or stored at −20° C.
Before starting the experiment, you need to do the following: • (1) Place all reagents (including specimens) in the room and equilibrate to room temperature (18-25° C.) before use. • (2) The standard is diluted to the corresponding gradient. Take a bottle of standard, add 1 mL of standard diluent (at this time the concentration is 1000 μg/mL), mix gently, let stand at room temperature for 10 minutes, and gently shake every 2 minutes to mix. After mixing, dilute it to 100 μg/mL, take 4 EP tubes (add 600 μL of standard dilute to each EP tube), triple dilute the standard from a concentration of 100 μg/mL to 33.33 μg/mL, 11.11 μg/mL, 3.70 μg/mL, 1.23 μg/mL, and use the standard dilution as a blank well (0 μg/mL). • (3) Working solution of the detection solution A: add 150 μL of reagent dilution to the mother liquor of the detection solution A, stand at room temperature for 10 minutes, and shake gently every 2 minutes to have a well-mix. Before use, dilute with the detection diluent A at 1:100, and mix the solution well with the shaker. Calculate the required amount at 50 μL/well for dilution before use (0.1-0.2 mL more needs to be prepared). • (4) Working solution of the detection solution B: Detection solution B needs to be centrifuged at 5000 ref for 10 s before each use to deposition the liquid from the tube wall or cap to the bottom of the tube. Immediately before use, dilute with the detection diluent B at 1:100, and mix them well with the shaker. […]

[2] = test system: STZ diabetic rats; conditions: rat, in vivo, 50 mg/kg/day
Protocol: (§1) Due to the large body surface area of rats, the doses of groups C, D and E were equivalent to 0.095 mg/kg, 0.95 mg/kg, and 9.5 mg/kg in humans (according to the literature: Anroop B Nair, Shery Jacob. A simple practice guide for dose conversion between animals and human. Journal of Basic and Clinical Pharmacy. 2016, 7(2):27-31.), with 95% binding capacity to albumin, similar to humans. All groups of rats were fed high-fat feed.
In addition, rats in the high-dose E group all died before diabetic nephropathy was modeled, of which 13 died in the first four months and the other 5 died in the fifth and sixth months. It was speculated that the death may be related to the high blood glucose elevation of diabetic rats. Therefore, the statistics of Table 1, FIG. 1, FIG. 2, FIG. 3 and FIG. 5 are not included those rats in group E.

[3] = test system: STZ diabetic rats; experiment: Glomerular filtration rate in STZ diabetic rats; assay type: in vivo, SD rats; conditions: groups C and D (0.5 and 5 mg/kg) versus group B
Protocol: as §1

[4] = test system: rat kidney; experiment: HE staining of rat kidney sections (glomeruli, tubules); assay type: in vivo, SD rats; conditions: 5 mg/kg (medium-dose) group, six-month rat, renal HE×400
Excerpt: In addition, clinically patients with nephropathy will have an increase in glomerular volume and a higher number of cells in the early stage, and with the progression of the disease, there will be widening of the mesangial area, the mesangial cells and mesangial stroma will increase, and the tubular epithelial cells will have cell edema, that is, often called granular degeneration or vacuolar degeneration, tubulointerstitial fibrosis and other symptoms. In this experiment, the glomerular volume changes of rat kidney sections were observed by HE staining, and the results of renal staining sections in each experimental group are shown in FIG. 5.

[5] = group C, 0.5 mg/kg per day gavage
[6] = group D, 5 mg/kg per day gavage

Nc1cc(N2CCCCC2)nc(N)[n+]1[O-] [minoxidil]
mALB, urine microalbumin value of each KATP agonist ([1]; 0.5 mg/kg group): 130.4 ± 60.3 µg/mL

O=C(NCCO[N+](=O)[O-])c1cccnc1 [Nicorandil]
mALB, urine microalbumin value of each KATP agonist ([1]; 0.5 mg/kg group): 78.2 ± 35.1 µg/mL
effect on reducing the amount of microalbumin in diabetic nephropathy urine compared with the negative control group [1]: significant effect

CCC1NC(=O)c2cc(S(N)(=O)=O)c(Cl)cc2N1 (centres unmarked) [quinethazone]
mALB, urine microalbumin value of each KATP agonist ([1]; 1 mg/kg group): 114.6 ± 45.3 µg/mL

CC1=Nc2ccc(Cl)cc2S(=O)(=O)N1 [Diazoxide, 7-chloro-3-methyl-2-hydro-1,2,4-benzothiadiazine 1,1-dioxide]
progression of diabetic nephropathy ([1]; 0.5 mg/kg): can delay the progression of diabetic nephropathy
mALB, 20 Week [1, 5]: 15.6 ± 2.9 µg/mL
mALB, 24 Week ([1]; group C, 0.5 mg/kg per day gavage, 0.5 mg/kg/day): 18.2 ± 4.7 µg/mL
mALB, 26 Week [1, 5]: 28.4 ± 10.8 µg/mL
mALB, 32 Week [1, 5]: 149.5 ± 50.3 µg/mL
mALB, 35 Week [1, 5]: 108.0 ± 33.7 µg/mL
mALB, 20 Week [1, 6]: 14.5 ± 3.0 µg/mL
mALB, 24 Week ([1]; group D, 5 mg/kg per day gavage, 5 mg/kg/day): 19.8 ± 4.3 µg/mL
mALB, 26 Week [1, 6]: 19.9 ± 7.4 µg/mL
mALB, 32 Week [1, 6]: 105.5 ± 38.9 µg/mL
mALB, 35 Week [1, 6]: 52.8 ± 23.4 µg/mL
death of rats [2]: all died
effect on the increase of compensatory glomerular filtration rate [3]: could reduce the increase of glomerular filtration rate
kidney histology, HE staining [4]: some glomeruli significantly increased in size
kidney histology, HE staining ([4]; listed as diazoxide): tubular vacuolar degeneration

CC(N/C(=N\C#N)Nc1ccncc1)C(C)(C)C (centres unmarked) [Pinacidil]
mALB, urine microalbumin value of each KATP agonist ([1]; 1 mg/kg group): 99.7 ± 50.7 µg/mL
effect on reducing the amount of microalbumin in diabetic nephropathy urine compared with the negative control group [1]: significant effect

C/N=C(/S)[C@]1(c2cccnc2)CCCC[S@@+]1[O-] [Aprikalim]
mALB, urine microalbumin value of each KATP agonist ([1]; 1 mg/kg group): 59.7 ± 25.4 µg/mL
effect on reducing the amount of microalbumin in diabetic nephropathy urine compared with the negative control group [1]: significant effect

COC(=O)C1=C(C)NC(C)=C(C(=O)OCCN(C)Cc2ccccc2)C1c1cccc([N+](=O)[O-])c1 (centres unmarked) [nicardipine]
mALB, urine microalbumin value of each KATP agonist ([1]; 5 mg/kg group): 55.4 ± 25.6 µg/mL

CC1(C)Oc2ccc(C#N)cc2C(N2CCCC2=O)C1O (centres unmarked) [Cromakalim]
mALB, urine microalbumin value of each KATP agonist ([1]; 1 mg/kg group): 77.6 ± 45.6 µg/mL
effect on reducing the amount of microalbumin in diabetic nephropathy urine compared with the negative control group [1]: significant effect
